Measurements as given in patent US11845742B2, “Therapeutic compounds and methods to treat infection” (priority 2017, dated 2023).
In brackets after ≈: the same amount, converted by molar mass. Where two headings read alike, the source gives them in different places.

Key:
P. Aeruginosa PAO1 [1] = experiment: Intrinsic MIC assay (broth microdilution), P. aeruginosa PAO1; format: cell-based, Pseudomonas aeruginosa; conditions: for MIC: Pseudomonas aeruginosa, read-out: Intrinsic MIC
Method: (§1) MIC assays were conducted in accordance with Clinical and Laboratory Standards Institute (CLSI) guidelines for broth microdilution.
(§2) The intrinsic MIC of the experimental EPIs was tested with the method described. The 2-fold serial dilution begins with 100 μg/mL of tested compound in the first column of the 96-well plates. The following Gram-negative bacterial strains were included in these assays: • Escherichia coli ATCC 25922 • Klebsiella pneumoniae ATCC 13883 and ATCC 10031 • Pseudomonas aeruginosa ATCC 27853. • Pseudomonas aeruginosa PAO1 • Acinetobacter baumannii ATCC 19606

K. pneumoniae ATCC 10031 = experiment: Intrinsic MIC assay (broth microdilution), K. pneumoniae; format: cell-based, Klebsiella pneumoniae; conditions: for MIC: Klebsiella pneumoniae
Method: as §1, §2

P. Aeruginosa PAO1 [2] = experiment: MIC assay in the presence of a bacterial efflux pump inhibitor (EPI), P. aeruginosa PAO1; format: cell-based, Pseudomonas aeruginosa; conditions: in the presence of 12.5 μg/ml of N-(((2S,4R)-4-(aminomethyl)pyrrolidin-2-yl)methyl)-6-(4-fluorophenyl)-1H-indole-2-carboxamide
Method: The ability of a compound to produce an antibiotic effect can be determined using a method as described in Example 11. Data for representative compounds used in combination with the bacterial efflux pump inhibitor (EPI) N-(((2S,4R)-4-(aminomethyl)pyrrolidin-2-yl)methyl)-6-(4-fluorophenyl)-1H-indole-2-carboxamide is shown in Table 1.
as §1
The EPI assay for the purposes of these studies represents a MIC assay in which the MIC of the antibiotic against the bacteria is tested in the presence of an experimental efflux pump inhibitor (EPI). The highest concentration of the EPI present in the assay typically is ½ of the intrinsic MIC of the compound. […] Using serial dilutions of the EPI, its enhancement of antibiotic activity was then evaluated. The relative EPI activity was decided by comparing the MIC of the antibiotic in the presence of the EPI compound with the intrinsic MIC of the antibiotic alone. For comparative purposes, we generally used EPIs at concentration of 12.5 and 6.25 μg/ml against varying concentration of our test antibiotic.

A. baumannii ATCC 19606 = experiment: Intrinsic MIC assay (broth microdilution), A. baumannii; format: cell-based, Acinetobacter baumannii; conditions: for MIC: Acinetobacter baumannii
Method: as §1, §2

E. coli ATCC 25922 = experiment: Intrinsic MIC assay (broth microdilution), E. coli; format: cell-based, Escherichia coli; conditions: for MIC: Escherichia coli
Method: as §1, §2

[3] = P. Aeruginosa PAO1, without EPI
[4] = ATCC10031, K. pneumoniae ATCC 10031, read-out: Intrinsic MIC
[5] = ATCC19606, A. baumannii ATCC 19606, read-out: Intrinsic MIC
[6] = ATCC25922, E. coli ATCC 25922, read-out: Intrinsic MIC
[7] = 18 h, P. Aeruginosa PAO1, without EPI

| Compound | Intrinsic MIC (P. Aeruginosa PAO1 [1]; [3]) | Intrinsic MIC (K. pneumoniae ATCC 10031; K. pneumoniae ATCC 10031) | MIC in the Presence of EPI* (P. Aeruginosa PAO1 [2]) | Intrinsic MIC (A. baumannii ATCC 19606; A. baumannii ATCC 19606) | Intrinsic MIC (E. coli ATCC 25922; E. coli ATCC 25922) | MIC (K. pneumoniae ATCC 10031; [4]) | MIC (A. baumannii ATCC 19606; [5]) | MIC (E. coli ATCC 25922; [6]) | MIC (P. Aeruginosa PAO1 [1]; PAO1, 18 h) | MIC (K. pneumoniae ATCC 10031; ATCC10031, read-out: Intrinsic MIC) | MIC (A. baumannii ATCC 19606; ATCC19606, read-out: Intrinsic MIC) | MIC (E. coli ATCC 25922; ATCC25922, read-out: Intrinsic MIC) | MIC (P. Aeruginosa PAO1 [1]; [7]) |
| --- | --- | --- | --- | --- | --- | --- | --- | --- | --- | --- | --- | --- | --- |
| 1-(5-Bromo-1H-indol-2-yl)ethane-1,2-diamine [Example 6] | 256 µg/mL | 64 µg/mL | 128 µg/mL | 128 µg/mL | 128 µg/mL | – | – | – | – | – | – | – | – |
| CC(N)c1cc2cc(Br)ccc2[nH]1 (stereo not shown) [Example 1, 1-(5-Bromo-1H-indol-2-yl)ethan-1-amine] | 128 µg/mL | – | 8 µg/mL | – | – | 64 µg/mL (≈ 268 µM) | 128 µg/mL (≈ 535 µM) | 128 µg/mL (≈ 535 µM) | – | – | – | – | – |
| CCCCC(N)c1cc2cc(Br)ccc2[nH]1 (stereo not shown) [Example 2, 1-(5-Bromo-1H-indol-2-yl)pentan-1-aminium chloride] | – | – | 64 µg/mL | – | – | – | – | – | > 256 µg/mL | 16 µg/mL | 32 µg/mL | 16 µg/mL | – |
| CNC(C)c1cc2cc(Br)ccc2[nH]1 (stereo not shown) [Example 3, 1-(5-Bromo-1H-indol-2-yl)-N-methylethan-1-amine] | – | – | 64 µg/mL | – | – | 128 µg/mL (≈ 506 µM) | 64 µg/mL (≈ 253 µM) | 256 µg/mL (≈ 1010 µM) | – | – | – | – | > 256 µg/mL |
| CC(N)c1cc2ccccc2[nH]1 (stereo not shown) [Example 4, 1-(1H-Indol-2-yl)ethan-1-amine] | – | – | 128 µg/mL | – | – | > 256 µg/mL | > 256 µg/mL | > 256 µg/mL | – | – | – | – | > 256 µg/mL |
| CC(N)c1cc2cc(Br)ccc2n1C (stereo not shown) [Example 5, 1-(5-Bromo-1-methyl-1H-indol-2-yl)ethan-1-amine] | – | – | 64 µg/mL | – | – | 64 µg/mL (≈ 253 µM) | 128 µg/mL (≈ 506 µM) | 128 µg/mL (≈ 506 µM) | – | – | – | – | > 256 µg/mL |
| CC(N)c1cc2cc(F)ccc2[nH]1 (stereo not shown) [Example 7, 1-(5-Fluoro-1H-indol-2-yl)ethan-1-amine] | 256 µg/mL | – | 16 µg/mL | – | – | > 256 µg/mL | > 256 µg/mL | > 256 µg/mL | – | – | – | – | – |
| COc1ccc2[nH]c(C(C)N)cc2c1 (stereo not shown) [Example 8, 1-(5-Methoxy-1H-indol-2-yl)ethan-1-amine] | – | – | 256 µg/mL | – | – | > 256 µg/mL | 256 µg/mL (≈ 1350 µM) | > 256 µg/mL | – | – | – | – | > 256 µg/mL |
| CC(N)c1cc2cc(C(F)(F)F)ccc2[nH]1 (stereo not shown) [Example 9, 1-(5-(Trifluoromethyl)-1H-indol-2-yl)ethan-1-amine] | – | – | 16 µg/mL | – | – | 64 µg/mL (≈ 280 µM) | 64 µg/mL (≈ 280 µM) | 128 µg/mL (≈ 561 µM) | – | – | – | – | > 256 µg/mL |
| CC(N)c1cc2ccc(Br)cc2[nH]1 (stereo not shown) [Example 10, 1-(6-Bromo-1H-indol-2-yl)ethan-1-amine] | – | – | 32 µg/mL | – | – | 128 µg/mL (≈ 535 µM) | 128 µg/mL (≈ 535 µM) | 256 µg/mL (≈ 1070 µM) | – | – | – | – | > 256 µg/mL |
| CC(N)c1cc2cc(OC(F)(F)F)ccc2[nH]1 (stereo not shown) [Example 11, 1-(5-(Trifluoromethoxy)-1H-indol-2-yl)ethan-1-amine] | – | – | 64 µg/mL | – | – | 64 µg/mL (≈ 262 µM) | 64 µg/mL (≈ 262 µM) | 128 µg/mL (≈ 524 µM) | – | – | – | – | > 256 µg/mL |
| CC(c1cc2ccccc2[nH]1)N(C)C (stereo not shown) [Example 12, 1-(1H-Indol-2-yl)-N,N-dimethylethan-1-amine] | – | – | 256 µg/mL | – | – | > 256 µg/mL | > 256 µg/mL | > 256 µg/mL | – | – | – | – | > 256 µg/mL |
| NCc1cc2ccc(Br)cc2[nH]1 [Example 13, (6-Bromo-1H-indol-2-yl)methanamine] | – | – | 16 µg/mL | – | – | 256 µg/mL (≈ 1140 µM) | 128 µg/mL (≈ 569 µM) | 256 µg/mL (≈ 1140 µM) | – | – | – | – | 64 µg/mL (≈ 284 µM) |
| NCc1cc2cc(Br)ccc2[nH]1 [Example 14, (5-Bromo-1H-indol-2-yl)methanamine] | – | – | 8 µg/mL | – | – | 64 µg/mL (≈ 284 µM) | 64 µg/mL (≈ 284 µM) | 128 µg/mL (≈ 569 µM) | – | – | – | – | 128 µg/mL (≈ 569 µM) |
